US20250213601A1 (priority 2022, published 2025)
“And” between values parts separate entries of the source, which are not always exact repeats. Equal entries are not always repeated.

Columns and labels:
Dengue virus (EDEN-3) = details: cited from earlier work
[1] = tested on: Influenza VLPs (avian influenza A); details: 10 μM; cited from earlier work
SARS-CoV-2 = details: in vitro, inhibition of replication; cited from earlier work
[2] = tested on: Zika virus (Asian/Cook Islands); details: cited from earlier work
Syrian hamsters = test: Oral toxicity of solid dispersion; assay type: in vivo; details: per pure ivermectin, FORMULA I compound per Example 1 No 2 (apple pectin 1:5)
Pseudorabies virus = details: estimated; read-out: est. EC50; cited from earlier work
Caco-2 cell line = test: Permeability through a monolayer of Caco-2 cells; details: bottom of Transwell well, 3 μM (per pure IVM) in HBSS on top
[3] = Ivermectin concentration in the blood plasma of cattle after oral administration; assay type: in vivo; details: oral 600 μg/kg (per pure IVM)
Method: Cattle were divided into 2 groups of 1 animals each. Free Ivermectin (IVM) and compound of FORMULA I were orally administered to starving cattle. Blood samples were withdrawn from the jugular vein at appropriate time intervals after administration (0, 4, 20 h).
Fluorescence detection was set at an excitation and emission wavelength of 365 and 475 nm, respectively. The mobile phase consisted of acetonitrile, methanol and distilled water (50:45:5, v/v/v), running through the column at a flow rate of 1.5 ml/minute. The chromatographic analysis was operated at 25° C. Sample preparation (100 μl plasma) was done by a single stepprotein precipitation with acetonitrile, followed by derivatization with 100 μl of N-methylimidazole solution in acetonitrile (1:1, v/v) and 150 μl of trifluoroacetic anhydrous solution in acetonitrile (1:2, v/v). Calibration curve over the concentration range of 20-8,000 ng/ml plasma was linear with correlation coefficient better than 0.995.
All the blood samples were centrifuged at 3000 rpm for 15 min to obtain […]. Cattle plasma samples (100 μL each) were placed in 1.5 mL Eppendorf tubes, and then the samples underwent protein precipitation. The samples were vortexed for 1 min and centrifuged at 13,400 rpm for 10 min 20 μL of the supernatant was injected into the HPLC.

West Nile virus (MRM61C) = details: cited from earlier work
Dengue virus (NGC) = details: cited from earlier work
Adenovirus (HAdV-C5) = details: cited from earlier work
[4] = tested on: Hendra (Hendra virus/Australia/Horse); details: estimated; read-out: est. EC50; cited from earlier work
[5] = standard tablet form, for 5 days; cited from earlier work
Dengue virus (EDEN-4) = details: cited from earlier work
Dengue virus (EDEN-2) = details: cited from earlier work
West Nile virus (NY99) = details: cited from earlier work

## CCC(C)C1OC2(CCC1C)CC1CC(CC=C(C)C(OC3CC(OC)C(OC4CC(OC)C(O)C(C)O4)C(C)O3)C(C)C=CC=C3COC4C(O)C(C)=CC(C(=O)O1)C34O)O2 (centres unmarked) [ivermectin, Ivermectin]
Dengue virus (EDEN-3)
  EC50: 1700 nM
[1]
  Inhibition: 10 μM total inhibition
SARS-CoV-2
  EC50: 2400 nM and 2200 nM and 2800 nM
  EC90: 5000 nM
[2]
  EC50: 1300 nM and 1600 nM
Syrian hamsters
  LD50: 62 mg/kg
Pseudorabies virus
  EC50: ~800 nM
Caco-2 cell line; 20 min, FORMULA I compound per Example 1 No 2 (apple pectin 1:5)
  Concentrartion of IVM: 50 ng/mL
Caco-2 cell line; 40 min, FORMULA I compound per Example 1 No 2
  Concentrartion of IVM: 90 ng/mL
Caco-2 cell line; 60 min, FORMULA I compound per Example 1 No 2
  Concentrartion of IVM: 150 ng/mL
Caco-2 cell line; 80 min, FORMULA I compound per Example 1 No 2
  Concentrartion of IVM: 190 ng/mL
Caco-2 cell line; 100 min, FORMULA I compound per Example 1 No 2
  Concentrartion of IVM: 210 ng/mL
Caco-2 cell line; 120 min, FORMULA I compound per Example 1 No 2
  Concentrartion of IVM: 250 ng/mL
[3]; 0 h, FORMULA I compound per Example 1 No 1 (polyvinylpyrrolidone 1:10), IVM = milled free ivermectin
  C1, 0 h (ivermectin concentration in plasma): 0 ± 0.15 ng/mL
[3]; 4 h, FORMULA I compound per Example 1 No 1
  C2, 4 h (ivermectin concentration in plasma): 307.3 ± 46.1 ng/mL
[3]; 20 h, FORMULA I compound per Example 1 No 1
  C3, 20 h (ivermectin concentration in plasma): 104.4 ± 15.6 ng/mL
[3]; FORMULA I compound per Example 1 No 1
  Cmax: 350 ± 50 nM
West Nile virus (MRM61C)
  EC50: 1000 nM and 500 nM
Dengue virus (NGC); 50 μM
  Inhibition: total inhibition
Dengue virus (NGC)
  EC50: 400 nM and 600 nM
Adenovirus (HAdV-C5)
  EC50: 2500 nM
[4]
  EC50: ~2000 nM
[5]
  lung Cmax: 400 to 900 nM
Dengue virus (EDEN-4)
  EC50: 1900 nM
Dengue virus (EDEN-2)
  EC50: 2100 nM and 1700 nM
West Nile virus (NY99)
  EC50: 4000 nM
